The term IC50 denotes the concentration that gives 50% inhibition. Read a low IC50 as greater potency.

For this assay, the system named is Endogenous Huntingtin Protein. Description: Endogenous Huntingtin Protein Assay (MSD plates, MW1 or MAB2166 capture antibody). The class given is cell-based. The conditions noted are these: Table 1. The gist of the method:
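Endogenous huntingtin was captured overnight at 4° C on wells coated with 1 μg/mL MW1 (polyglutamine-specific) or MAB2166. Detection used rabbit #5656S and then goat anti-rabbit SULFO-TAG, both at 0.25 μg/mL and 1 h at room temperature. Plates were imaged on the MSD system in read buffer T.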
Consider `CN1C[C@@H]2CN(c3nc4sc(-c5ccc(-c6cn[nH]c6)cc5O)nc4s3)C[C@@H]2C1` [Compound 211, 2-{5-[(3aR,6aS)-5-methylhexahydropyrrolo[3,4-c]pyrrol-2(1H)-yl][1,3]thiazolo[5,4-d][1,3]thiazol-2-yl}-5-(1H-pyrazol-4-yl)phenol], for which the half-inhibitory concentration (IC50) lay within 1000 to 3000 nM.

In the case of `CC1CC(N(C)c2nc3sc(-c4ncc(-c5cn[nH]c5)cn4)nc3s2)CCN1C` (stereo not drawn) [Compound 129, N-(1,2-dimethylpiperidin-4-yl)-N-methyl-5-[5-(1H-pyrazol-4-yl)pyrimidin-2-yl][1,3]thiazolo[5,4-d][1,3]thiazol-2-amine], the IC50 was in the range of 100 to 500 nM.

Molecule `CC1CC(N(C)c2nc3sc(-c4ncc(-c5cn[nH]c5)c5[nH]cnc45)nc3s2)CCN1C` (stereo not drawn) [Compound 115, N-(1,2-dimethylpiperidin-4-yl)-N-methyl-5-[7-(1H-pyrazol-4-yl)-1H-imidazo[4,5-c]pyridin-4-yl][1,3]thiazolo[5,4-d][1,3]thiazol-2-amine] yielded an IC50 of at most 100 nM.

`CN(c1nc2sc(-c3cnc(-n4cccn4)cn3)nc2s1)[C@H]1C[C@]2(C)CC[C@](C)(C1)N2` [Compound 104, N-[(1R,3s,5S)-1,5-dimethyl-8-azabicyclo[3.2.1]octan-3-yl]-N-methyl-5-[5-(1H-pyrazol-1-yl)pyrazin-2-yl][1,3]thiazolo[5,4-d][1,3]thiazol-2-amine] registered an IC50 of 500 to 1000 nM.

On to `CN(c1nc2sc(-n3ccc(-c4cn[nH]c4)cc3=O)nc2s1)C1CCNCC1` [Compound 188, 1-{5-[methyl(piperidin-4-yl)amino][1,3]thiazolo[5,4-d][1,3]thiazol-2-yl}-4-(1H-pyrazol-4-yl)pyridin-2(1H)-one], for which the half-maximal inhibitory concentration (IC50) is at most 100 nM.

In turn, `CN(c1nc2sc(-n3ccc(-c4cn[nH]c4)cc3=O)nc2s1)[C@H]1C[C@]2(C)CC[C@](C)(C1)N2` [Compound 146, 1-(5-{[(1R,3s,5S)-1,5-dimethyl-8-azabicyclo[3.2.1]octan-3-yl](methyl)amino}[1,3]thiazolo[5,4-d][1,3]thiazol-2-yl)-4-(1H-pyrazol-4-yl)pyridin-2(1H)-one] displayed an IC50 of at most 100 nM.

Regarding `CN(c1nc2sc(-c3ncc(-c4cn[nH]c4)cc3O)nc2s1)[C@@H]1CCNC1` [Compound 56, 2-(5-{methyl[(3R)-pyrrolidin-3-yl]amino}[1,3]thiazolo[5,4-d][1,3]thiazol-2-yl)-5-(1H-pyrazol-4-yl)pyridin-3-ol], the half-maximal inhibitory concentration (IC50) was at most 100 nM.

Take `C[C@@H]1C[C@@H](N(C)c2nc3sc(-c4ccc(-c5cn[nH]c5)cc4O)nc3s2)C[C@H](C)N1` [Compound 34, 2-(5-{[(2R,4s,6S)-2,6-dimethylpiperidin-4-yl](methyl)amino}[1,3]thiazolo[5,4-d][1,3]thiazol-2-yl)-5-(1H-pyrazol-4-yl)phenol]: the concentration for half-maximal inhibition (IC50) is at most 100 nM.

In turn, `CCn1cc(-c2cnc(-c3nc4sc(N(C)C5CCNCC5)nc4s3)c(O)c2)cn1` [Compound 52, 5-(1-ethyl-1H-pyrazol-4-yl)-2-{5-[methyl(piperidin-4-yl)amino][1,3]thiazolo[5,4-d][1,3]thiazol-2-yl}pyridin-3-ol] returned an IC50 of 1000 to 3000 nM.

The molecule `CC1CC(N(C)c2nc3sc(-c4cnc(-c5cn[nH]c5)cn4)nc3s2)CCN1C` (stereo not drawn) [Compound 132, N-(1,2-dimethylpiperidin-4-yl)-N-methyl-5-[5-(1H-pyrazol-4-yl)pyrazin-2-yl][1,3]thiazolo[5,4-d][1,3]thiazol-2-amine] displayed an IC50 of 100 to 500 nM.

As for `Cn1cc2cc(-c3nc4sc(C5CCNCC5)nc4s3)cc(C#N)c2n1` [Compound 15, 2-methyl-5-[5-(piperidin-4-yl)[1,3]thiazolo[5,4-d][1,3]thiazol-2-yl]-2H-indazole-7-carbonitrile], the IC50 was at most 100 nM.

`CN(c1nc2sc(-c3ccc(-c4cn[nH]c4)c4cc[nH]c34)nc2s1)C1CC(C)(C)NC(C)(C)C1` [Compound 128, N-methyl-5-[4-(1H-pyrazol-4-yl)-1H-indol-7-yl]-N-(2,2,6,6-tetramethylpiperidin-4-yl)[1,3]thiazolo[5,4-d][1,3]thiazol-2-amine] had a 50% inhibitory concentration (IC50) of at most 100 nM.

Consider `Cn1cc2cc(-c3nc4sc(N5CCNCC5)nc4s3)cc(C#N)c2n1` [Compound 7, 2-methyl-5-[5-(piperazin-1-yl)[1,3]thiazolo[5,4-d][1,3]thiazol-2-yl]-2H-indazole-7-carbonitrile], for which the half-maximal inhibitory concentration (IC50) lay in the range of 500 to 1000 nM.

Turning to `Cc1cn(-c2cnc(-c3nc4sc(N(C)[C@H]5C[C@]6(C)CC[C@](C)(C5)N6)nc4s3)cn2)cn1` [Compound 88, N-[(1R,3s,5S)-1,5-dimethyl-8-azabicyclo[3.2.1]octan-3-yl]-N-methyl-5-[5-(4-methyl-1H-imidazol-1-yl)pyrazin-2-yl][1,3]thiazolo[5,4-d][1,3]thiazol-2-amine], the IC50 is at most 100 nM.

`Cc1cnn(-c2cnc(-c3nc4sc(N(C)[C@@H]5C[C@H]6CC[C@@H](C5)N6)nc4s3)c(O)c2)c1` [Compound 190, 2-(5-{[(1R,3s,5S)-8-azabicyclo[3.2.1]octan-3-yl](methyl)amino}[1,3]thiazolo[5,4-d][1,3]thiazol-2-yl)-5-(4-methyl-1H-pyrazol-1-yl)pyridin-3-ol] returned an IC50 of at most 100 nM.

With `C[C@@H]1C[C@@H](N(C)c2nc3sc(-c4ncc(-c5cnn(C)c5)c5cc[nH]c45)nc3s2)CCN1` [Compound 91, N-methyl-N-[(2R,4S)-2-methylpiperidin-4-yl]-5-[4-(1-methyl-1H-pyrazol-4-yl)-1H-pyrrolo[2,3-c]pyridin-7-yl][1,3]thiazolo[5,4-d][1,3]thiazol-2-amine], the IC50 was at most 100 nM.

`CN(c1nc2sc(-n3cnc(-c4cn[nH]c4)cc3=O)nc2s1)[C@@H]1C[C@H]2CC[C@@H](C1)N2` [Compound 172, 3-(5-{[(1R,3s,5S)-8-azabicyclo[3.2.1]octan-3-yl](methyl)amino}[1,3]thiazolo[5,4-d][1,3]thiazol-2-yl)-6-(1H-pyrazol-4-yl)pyrimidin-4(3H)-one] gave an IC50 of at most 100 nM.

The molecule `CN(c1nc2sc(-c3ncc(Br)cc3O)nc2s1)[C@@H]1C[C@H]2CC[C@@H](C1)N2` [Compound 185, 2-(5-{[(1R,3s,5S)-8-azabicyclo[3.2.1]octan-3-yl](methyl)amino}[1,3]thiazolo[5,4-d][1,3]thiazol-2-yl)-5-bromopyridin-3-ol] registered an IC50 of at most 100 nM.

`CN(c1nn2c(Cl)c(-c3ccc(-c4cn[nH]c4)cc3O)nc2s1)C1CC(C)(C)NC(C)(C)C1` [Compound 9, 2-{5-chloro-2-[methyl(2,2,6,6-tetramethylpiperidin-4-yl)amino]imidazo[2,1-b][1,3,4]thiadiazol-6-yl}-5-(1H-pyrazol-4-yl)phenol] registered an IC50 of 100 to 500 nM.

For `CC1(C)CC(Oc2nc3sc(-c4ccc(-c5cn[nH]c5)cc4O)nc3s2)CC(C)(C)N1` [Compound 37, 5-(1H-pyrazol-4-yl)-2-{5-[(2,2,6,6-tetramethylpiperidin-4-yl)oxy][1,3]thiazolo[5,4-d][1,3]thiazol-2-yl}phenol], the 50% inhibitory concentration (IC50) is at most 100 nM.

`CN(c1nc2sc(-n3cnc(-c4cn[nH]c4)cc3=O)nc2s1)[C@@H]1C[C@H]2CC[C@@H](C1)N2C` [Compound 153, 3-(5-{methyl[(1R,3s,5S)-8-methyl-8-azabicyclo[3.2.1]octan-3-yl]amino}[1,3]thiazolo[5,4-d][1,3]thiazol-2-yl)-6-(1H-pyrazol-4-yl)pyrimidin-4(3H)-one] displayed an IC50 of at most 100 nM.

Regarding `CN(c1nc2sc(-c3ccc(-c4ccn(C)c(=O)c4)cc3O)nc2s1)C1CC(C)(C)NC(C)(C)C1` [Compound 46], the concentration for half-maximal inhibition (IC50) is at most 100 nM.

On to `CN(c1nc2sc(-c3ccc(-c4cn[nH]c4)cc3)nc2s1)[C@@H]1C[C@H]2CC[C@@H](C1)N2` [Compound 141, N-[(1R,3s,5S)-8-azabicyclo[3.2.1]octan-3-yl]-N-methyl-5-[4-(1H-pyrazol-4-yl)phenyl][1,3]thiazolo[5,4-d][1,3]thiazol-2-amine], for which the IC50 is at most 100 nM.

`CN(c1nc2sc(-c3ccc(-c4cn[nH]c4)cc3O)nc2s1)[C@@H]1CCNC1` [Compound 55, 2-(5-{methyl[(3R)-pyrrolidin-3-yl]amino}[1,3]thiazolo[5,4-d][1,3]thiazol-2-yl)-5-(1H-pyrazol-4-yl)phenol] showed an IC50 of at most 100 nM.

Take `CN(c1nc2sc(-c3ncc(-c4cn[nH]c4)cc3O)nc2s1)[C@@H]1C[C@H]2CC[C@@H](C1)N2` [Compound 203, 2-(5-{[(1R,3s,5S)-8-azabicyclo[3.2.1]octan-3-yl](methyl)amino}[1,3]thiazolo[5,4-d][1,3]thiazol-2-yl)-5-(1H-pyrazol-4-yl)pyridin-3-ol]: the IC50 was at most 100 nM.

In the case of `Oc1cc(-c2cn[nH]c2)cnc1-c1nc2sc(N3CC4(CC5CCC(C4)N5)C3)nc2s1` [Compound 197, 5-(1H-pyrazol-4-yl)-2-[5-(spiro[8-azabicyclo[3.2.1]octane-3,3′-azetidin]-1′-yl)[1,3]thiazolo[5,4-d][1,3]thiazol-2-yl]pyridin-3-ol], the half-inhibitory concentration (IC50) lay in the range of 1000 to 3000 nM.

As to `CC1(C)CC(Oc2nc3sc(-n4ccc(-c5cn[nH]c5)cc4=O)nc3s2)CC(C)(C)N1` [Compound 156, 4-(1H-pyrazol-4-yl)-1-{5-[(2,2,6,6-tetramethylpiperidin-4-yl)oxy][1,3]thiazolo[5,4-d][1,3]thiazol-2-yl}pyridin-2(1H)-one], the concentration for half-maximal inhibition (IC50) was at most 100 nM.

`C[C@@H]1C[C@@H](Oc2nc3sc(-c4ncc(-c5cn[nH]c5)c5cc[nH]c45)nc3s2)CCN1` [Compound 76, 7-(5-{[(2R,4S)-2-methylpiperidin-4-yl]oxy}[1,3]thiazolo[5,4-d][1,3]thiazol-2-yl)-4-(1H-pyrazol-4-yl)-1H-pyrrolo[2,3-c]pyridine] gave an IC50 of at most 100 nM.

The molecule `CC1CC(N(C)c2nc3sc(-c4ccc(-c5cn[nH]c5)c5cc[nH]c45)nc3s2)CCN1C` (stereo not drawn) [Compound 125, N-(1,2-dimethylpiperidin-4-yl)-N-methyl-5-[4-(1H-pyrazol-4-yl)-1H-indol-7-yl][1,3]thiazolo[5,4-d][1,3]thiazol-2-amine] returned a half-maximal inhibitory concentration (IC50) of at most 100 nM.

The molecule `CN(c1nc2sc(-c3ncc(Br)cc3O)nc2s1)C1CCNCC1` [Compound 57, 5-bromo-2-{5-[methyl(piperidin-4-yl)amino][1,3]thiazolo[5,4-d][1,3]thiazol-2-yl}pyridin-3-ol] yielded a 50% inhibitory concentration (IC50) of 1000 to 3000 nM.
